≈ marks a conversion by molar mass, not a printed value.
Experiment: solubility in water
Format: physicochemical
Conditions: 25° C.

With `O=S(=O)(CCCC(F)(F)F)Oc1cccc(Oc2cccc3c2C[C@H](CO)C3)c1` [Compound (I), (−)-(R)-3-(2-Hydroxymethylindanyl-4-oxy)phenyl 4,4,4-trifluorobutane-1-sulfonate] the solubility was 2 µg/mL (≈ 4.65 µM).
